The values below come from US11661403B2, “Oxadiazole compounds” (Vivace Therapeutics, Inc., priority 2018, dated 2023).

Bounds are passed on as bounds.

The first assay deals with 8XTBD luciferase reporter (YAP) in HEK293T cells. Description: YAP Reporter Assay. The class given is cell-based. As to conditions: Homo sapiens, HEK-293T, 24 h, read-out: Firefly Luciferase IC50 (μM).
For `O=C1N[C@H](c2nnc(-c3ccccc3Nc3ccc(C(F)(F)F)cc3)o2)CO1` [Compound 78, (S)-4-(5-(2-((4-(trifluoromethyl)phenyl)amino)phenyl)-1,3,4-oxadiazol-2-yl)oxazolidin-2-one], the IC50 lay within 0.1 to 1 µM. Still for that read-out and setting: for `O=C1N[C@@H](c2nnc(-c3ccccc3Nc3ccc(C(F)(F)F)cc3)o2)CO1` [Compound 77, (R)-4-(5-(2-((4-(trifluoromethyl)phenyl)amino)phenyl)-1,3,4-oxadiazol-2-yl)oxazolidin-2-one] the value was below 0.1 µM.

The assay is the same for the next values; noted with them: Homo sapiens, HEK-293T; HEK293T cells stably transfected with 8XTBD luciferase reporter and pRLTK; 24-hr incubation; top concentration 3 μM; read-out: Firefly Luciferase IC50.
As for `CCOC(=O)CNc1nnc(-c2ccccc2Nc2ccc(C(F)(F)F)cc2)o1` [Compound 9, ethyl (5-(2-((4-(trifluoromethyl)phenyl)amino)phenyl)-1,3,4-oxadiazol-2-yl)glycinate], the IC50 was in the range of 1 to 5 µM.

In the case of `CC(CO)NC(=O)c1nnc(-c2ccccc2Nc2ccc(C(F)(F)F)cc2)o1` (stereo not drawn) [Compound 189, N-(1-hydroxypropan-2-yl)-5-(2-((4-(trifluoromethyl)phenyl)amino)phenyl)-1,3,4-oxadiazole-2-carboxamide], the IC50 fell in the range of 0.1 to 1 µM.

Turning to `N#CCNC(=O)c1nnc(-c2ccccc2Nc2ccc(C(F)(F)F)cc2)o1` [Compound 114, N-(cyanomethyl)-5-(2-((4-(trifluoromethyl)phenyl)amino)phenyl)-1,3,4-oxadiazole-2-carboxamide], the IC50 was below 0.1 µM. On to `C[C@]1(c2nnc(-c3ccccc3Nc3ccc(C(F)(F)F)cc3)o2)CCNC1=O` [Compound 76, (R)-3-methyl-3-(5-(2-((4-(trifluoromethyl)phenyl)amino)phenyl)-1,3,4-oxadiazol-2-yl)pyrrolidin-2-one], for which the IC50 is below 0.1 µM. As to `NC(CO)c1nnc(-c2ccccc2Nc2ccc(C(F)(F)F)cc2)o1` (stereo not drawn) [Compound 30, 2-amino-2-(5-(2-((4-(trifluoromethyl)phenyl)amino)phenyl)-1,3,4-oxadiazol-2-yl)ethanol], the IC50 was 0.1 to 1 µM. For `CC(C)NCCc1nnc(-c2ccccc2Nc2ccc(C(F)(F)F)cc2)o1` [Compound 91, 2-(5-(2-(isopropylamino)ethyl)-1,3,4-oxadiazol-2-yl)-N-(4-(trifluoromethyl)phenyl)aniline], the IC50 lay in the range of 1 to 5 µM. For the molecule `CC(O)(CC#N)c1nnc(-c2ccccc2Nc2ccc(C(F)(F)F)cc2)o1` (stereo not drawn) [Compound 130, 3-hydroxy-3-(5-(2-((4-(trifluoromethyl)phenyl)amino)phenyl)-1,3,4-oxadiazol-2-yl)butanenitrile], the IC50 is below 0.1 µM. As to `CC(Cc1nnc(-c2ccccc2Nc2ccc(C(F)(F)F)cc2)o1)N(C)C#N` (stereo not drawn) [Compound 149, N-methyl-N-(1-(5-(2-((4-(trifluoromethyl)phenyl)amino)phenyl)-1,3,4-oxadiazol-2-yl)propan-2-yl)cyanamide], the IC50 was below 0.1 µM. For the molecule `CN(Cc1nnc(-c2ccccc2Nc2ccc(C(F)(F)F)cc2)o1)C(=O)OC(C)(C)C` [Compound 167, Tert-Butyl Methyl((5-(2-((4-(trifluoromethyl)phenyl)amino)phenyl)-1,3,4-oxadiazol-2-yl)methyl)carbamate], the IC50 was in the range of 1 to 5 µM. As to `CN(C#N)CC1(c2nnc(-c3ccccc3Nc3ccc(C(F)(F)F)cc3)o2)CC1` [Compound 140, N-methyl-N-((1-(5-(2-((4-(trifluoromethyl)phenyl)amino)phenyl)-1,3,4-oxadiazol-2-yl)cyclopropyl)methyl)cyanamide], the IC50 is below 0.1 µM. As to `C#CC(C)(C)c1nnc(-c2ccccc2Nc2ccc(C(F)(F)F)cc2)o1` [Compound 68, 2-(5-(2-methylbut-3-yn-2-yl)-1,3,4-oxadiazol-2-yl)-N-(4-(trifluoromethyl)phenyl)aniline], the IC50 is below 0.1 µM. For `CCN(C#N)Cc1nnc(-c2ccccc2Nc2ccc(C(F)(F)F)cc2)o1` [Compound 102, N-ethyl-N-((5-(2-((4-(trifluoromethyl)phenyl)amino)phenyl)-1,3,4-oxadiazol-2-yl)methyl)cyanamide], the IC50 is below 0.1 µM.

As for `CC1(c2nnc(-c3ccccc3Nc3ccc(C(F)(F)F)cc3)o2)CCO1` (stereo not drawn) [Compound 180, 2-(5-(2-methyloxetan-2-yl)-1,3,4-oxadiazol-2-yl)-N-(4-(trifluoromethyl)phenyl)aniline], the IC50 is below 0.1 µM. Consider `C=CC(=O)NCc1nnc(-c2ccccc2Nc2ccc(C(F)(F)F)cc2)o1` [Compound 108, N-((5-(2-((4-(trifluoromethyl)phenyl)amino)phenyl)-1,3,4-oxadiazol-2-yl)methyl)acrylamide], for which the IC50 was below 0.1 µM. Take `FC(F)(F)c1ccc(Nc2ccccc2-c2nnc(C3CCO3)o2)cc1` (stereo not drawn) [Compound 182, 2-(5-(oxetan-2-yl)-1,3,4-oxadiazol-2-yl)-N-(4-(trifluoromethyl)phenyl)aniline]: the IC50 is below 0.1 µM.

Consider `CC(CN(C)C#N)c1nnc(-c2ccccc2Nc2ccc(C(F)(F)F)cc2)o1` (stereo not drawn) [Compound 152, N-methyl-N-(2-(5-(2-((4-(trifluoromethyl)phenyl)amino)phenyl)-1,3,4-oxadiazol-2-yl)propyl)cyanamide], for which the IC50 is below 0.1 µM.

As for `NC1(Cc2nnc(-c3ccccc3Nc3ccc(C(F)(F)F)cc3)o2)CC1` [Compound 136, 2-(5-((1-aminocyclopropyl)methyl)-1,3,4-oxadiazol-2-yl)-N-(4-(trifluoromethyl)phenyl)aniline], the IC50 lay in the range of 0.1 to 1 µM. For `FC(F)(F)c1ccc(Nc2ccccc2-c2nnc(C3CO3)o2)cc1` (stereo not drawn) [Compound 122, 2-(5-(oxiran-2-yl)-1,3,4-oxadiazol-2-yl)-N-(4-(trifluoromethyl)phenyl)aniline], the IC50 was below 0.1 µM.

`OC1(c2nnc(-c3ccccc3Nc3ccc(C(F)(F)F)cc3)o2)CCOC1` (stereo not drawn) [Compound 56, 3-(5-(2-((4-(trifluoromethyl)phenyl)amino)phenyl)-1,3,4-oxadiazol-2-yl)tetra hydrofuran-3-ol]: the IC50 was below 0.1 µM. For the molecule `N#CC1(c2nnc(-c3ccccc3Nc3ccc(C(F)(F)F)cc3)o2)CC1` [Compound 184, 1-(5-(2-((4-(trifluoromethyl)phenyl)amino)phenyl)-1,3,4-oxadiazol-2-yl)cyclopropane-1-carbonitrile], the IC50 was below 0.1 µM. As for `Cc1ocnc1-c1nnc(-c2ccccc2Nc2ccc(C(F)(F)F)cc2)o1` [Compound 35, 2-(5-(5-methyloxazol-4-yl)-1,3,4-oxadiazol-2-yl)-N-(4-(trifluoromethyl)phenyl) aniline], the IC50 lay within 0.1 to 1 µM. `N#Cc1nnc(-c2ccccc2Nc2ccc(C(F)(F)F)cc2)o1` [Compound 22, 5-[2-[4-(trifluoromethyl)anilino]phenyl]-1,3,4-oxadiazole-2-carbonitrile]: the IC50 is below 0.1 µM. With `O=C(NO)c1nnc(-c2ccccc2Nc2ccc(C(F)(F)F)cc2)o1` [Compound 14, N-hydroxy-5-(2-((4-(trifluoromethyl)phenyl)amino)phenyl)-1,3,4-oxadiazole-2-carboxamide], the IC50 was below 0.1 µM. On to `NC(=O)C1(c2nnc(-c3ccccc3Nc3ccc(C(F)(F)F)cc3)o2)CC1` [Compound 187, 1-(5-(2-((4-(trifluoromethyl)phenyl)amino)phenyl)-1,3,4-oxadiazol-2-yl)cyclopropane-1-carboxamide], for which the IC50 is below 0.1 µM. On to `CN(C#N)C1(c2nnc(-c3ccccc3Nc3ccc(C(F)(F)F)cc3)o2)CC1` [Compound 155, N-methyl-N-(1-(5-(2-((4-(trifluoromethyl)phenyl)amino)phenyl)-1,3,4-oxadiazol-2-yl)cyclopropyl)cyanamide], for which the IC50 is below 0.1 µM. Still for that read-out and setting: with `OCC1(c2nnc(-c3ccccc3Nc3ccc(C(F)(F)F)cc3)o2)CC1` [Compound 47, (1-(5-(2-((4-(trifluoromethyl)phenyl)amino)phenyl)-1,3,4-oxadiazol-2-yl)cyclopropyl)methanol] the figure was below 0.1 µM; with `CNCCc1nnc(-c2ccccc2Nc2ccc(C(F)(F)F)cc2)o1` [Compound 172, 2-(5-(2-(methylamino)ethyl)-1,3,4-oxadiazol-2-yl)-N-(4-(trifluoromethyl)phenyl)aniline], 1 to 5 µM; with `COC(=O)c1nnc(-c2ccccc2Nc2ccc(C(F)(F)F)cc2)o1` [Compound 8, methyl 5-(2-((4-(trifluoromethyl)phenyl)amino)phenyl)-1,3,4-oxadiazole-2-carboxylate], 0.1 to 1 µM. With `O=C1NCC(c2nnc(-c3ccccc3Nc3ccc(C(F)(F)F)cc3)o2)O1` (stereo not drawn) [Compound 13, 5-(5-(2-((4-(trifluoromethyl)phenyl)amino)phenyl)-1,3,4-oxadiazol-2-yl)oxazolidin-2-one], the IC50 fell in the range of 0.1 to 1 µM. On the same count and under the same terms, for `CC(O)(CCO)c1nnc(-c2ccccc2Nc2ccc(C(F)(F)F)cc2)o1` (stereo not drawn) [Compound 179, 3-(5-(2-((4-(trifluoromethyl)phenyl)amino)phenyl)-1,3,4-oxadiazol-2-yl)butane-1,3-diol] the value was below 0.1 µM; for `CC(C)(c1nnc(-c2ccccc2Nc2ccc(C(F)(F)F)cc2)o1)S(C)(=O)=O` [Compound 163, 2-(5-(2-(methylsulfonyl)propan-2-yl)-1,3,4-oxadiazol-2-yl)-N-(4-(trifluoromethyl)phenyl)aniline], 0.1 to 1 µM. Take `Cc1oncc1-c1nnc(-c2ccccc2Nc2ccc(C(F)(F)F)cc2)o1` [Compound 40, 2-(5-(5-methylisoxazol-4-yl)-1,3,4-oxadiazol-2-yl)-N-(4-(trifluoromethyl)phenyl) aniline]: the half-inhibitory concentration (IC50) lay within 0.1 to 1 µM.

Still in this assay, the particulars now being: Homo sapiens, HEK-293T; […]; 24-hr incubation; top concentration 3 μM; read-out: Firefly Luciferase IC50.
For `C#CCNC(=O)C(C)(C)c1nnc(-c2ccccc2Nc2ccc(C(F)(F)F)cc2)o1` [Compound 112, 2-methyl-N-(prop-2-yn-1-yl)-2-(5-(2-((4-(trifluoromethyl)phenyl)amino)phenyl)-1,3,4-oxadiazol-2-yl)propanamide], the IC50 is 1 to 5 µM. In the case of `N#CCCNC(=O)c1nnc(-c2ccccc2Nc2ccc(C(F)(F)F)cc2)o1` [Compound 113, N-(2-cyanoethyl)-5-(2-((4-(trifluoromethyl)phenyl)amino)phenyl)-1,3,4-oxadiazole-2-carboxamide], the IC50 was below 0.1 µM.
